# Measured values: the supplement of paper PMC12137928
# Structures can show the parent of a compound that is named as a salt.
# Legend:
# HCT116 [1] = details: 72 h
# Method in brief: (§1)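 Each well of the 1536-well plates received 250 HCT116 cells, which attached over 5 h. Luminescence was measured with CellTiter-Glo, scaled with vehicle as 0% and positive control as -100%, and pattern-corrected. A four-parameter Hill fit yielded IC50 and maximal efficacy.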
# HCT116 [2] = assay: efficacy (maximum % inhibition of viability vs DMSO); higher = more cytotoxic; details: 72 h
# Method in brief: as §1
Compound,IC50 cell viability (HCT116 [1]; ICRF193 0 nM),IC50 cell viability (HCT116 [1]; ICRF193 200 nM),efficacy (HCT116 [2]; ICRF193 200 nM),efficacy (HCT116 [2]; ICRF193 0 nM)
CN(C)CCCN1c2ccccc2Sc2ccccc21 [Promazine hydrochloride],> 45.8 µM,20.6 µM,46.3%,–
CC(CN1c2ccccc2Sc2ccccc21)N(C)C (centres undefined) [Promethazine],> 45.8 µM,29.1 µM,45.3%,–
C[C@@H]1O[C@@H](O[C@@H]2C=C3CC[C@@H]4[C@H](CC[C@]5(C)[C@@H](c6ccc(=O)oc6)CC[C@]45O)[C@@]3(C)CC2)[C@H](O)[C@H](O)[C@H]1O [Proscillaridin],0.0164 µM,0.013 µM,91.3%,107%
CCCCC[C@H](O)/C=C/[C@H]1[C@H](O)CC(=O)[C@@H]1C/C=C\CCCC(=O)O [Prostaglandin E2],29.1 µM,23.1 µM,84.7%,68.9%
CCCSS/C(CCO)=C(/C)N(C=O)Cc1cnc(C)nc1N [Prosultiamine],> 45.8 µM,29.1 µM,43.7%,–
CNCCCC1c2ccccc2C=Cc2ccccc21 [Protriptyline hydrochloride],29.1 µM,29.1 µM,95.4%,68.2%
CCc1nc(N)nc(N)c1-c1ccc(Cl)cc1 [Pyrimethamine],11.6 µM,9.2 µM,93.4%,106%
O=[N+]([O-])c1c(Cl)cccc1-c1c[nH]cc1Cl [Pyrrolnitrin],14.6 µM,18.3 µM,55.5%,54.1%
CNC(=O)c1cc(Oc2ccc(NC(=O)Nc3ccc(Cl)c(C(F)(F)F)c3)c(F)c2)ccn1 [Regorafenib],8.2 µM,5.8 µM,80.7%,67.3%
Oc1cccc(O)c1 [Resorcinol],> 45.8 µM,29.1 µM,46.8%,–
Cc1cc2nc3c(=O)[nH]c(=O)nc-3n(C[C@H](O)[C@H](O)[C@H](O)CO)c2cc1C [Riboflavin],> 45.8 µM,14.2 µM,57.7%,–
Cc1cc(/C=C/C#N)cc(C)c1Nc1ccnc(Nc2ccc(C#N)cc2)n1 [Rilpivirine],20.6 µM,18.3 µM,84.8%,83.7%
Nc1nc2ccc(OC(F)(F)F)cc2s1 [Riluzole],> 45.8 µM,23.1 µM,46.2%,–
O=C(O)c1c(Cl)c(Cl)c(Cl)c(Cl)c1-c1c2cc(I)c(=O)c(I)c-2oc2c(I)c(O)c(I)cc12 [Rose Bengal disodium],16.4 µM,11.6 µM,62.4%,74.2%
C=C(C)[C@H]1Cc2c(ccc3c2O[C@@H]2COc4cc(OC)c(OC)cc4[C@@H]2C3=O)O1 [Rotenone],0.326 µM,0.517 µM,89.1%,69.7%
Cc1cncc(CN2CCC(=C3c4ccc(Cl)cc4CCc4cccnc43)CC2)c1 [Rupatadine (Fumarate)],18.3 µM,20.6 µM,88.3%,56.6%
"CC[C@@H](C(=O)[C@@H](C)[C@@H](O)[C@H](C)[C@@H]1O[C@@H]([C@@H](CC)C(=O)O)CC[C@@H]1C)[C@H]1O[C@]2(C=C[C@@H](O)[C@]3(CC[C@@](C)([C@H]4CC[C@](O)(CC)[C@H](C)O4)O3)O2)[C@H](C)C[C@@H]1C [SALINOMYCIN, SODIUM]",2.31 µM,1.3 µM,100%,104%
OCc1cc(C(O)CNCCCCCCOCCCCc2ccccc2)ccc1O (centres undefined) [Salmeterol xinafoate],23.1 µM,23.1 µM,110%,108%
CN1CCC2=C(C1)c1ccccc1Cc1ccccc12 [Setiptiline],20.6 µM,> 45.8 µM,–,44.1%
CNC(=O)c1cc(Oc2ccc(NC(=O)Nc3ccc(Cl)c(C(F)(F)F)c3)cc2)ccn1 [Sorafenib],20.6 µM,29.1 µM,52.1%,113%
Clc1ccc(CSC(Cn2ccnc2)c2ccc(Cl)cc2Cl)cc1 (centres undefined) [Sulconazole nitrate],29.1 µM,18.3 µM,76.4%,89.6%

# Second part, led by results:
IC50 cell viability (HCT116 [1]; ICRF193 0 nM),IC50 cell viability (HCT116 [1]; ICRF193 200 nM),Compound,efficacy (HCT116 [2]; ICRF193 200 nM),efficacy (HCT116 [2]; ICRF193 0 nM)
> 45.8 µM,20.6 µM,CCCN(CCC)C(=O)C(CCC(=O)OCCCN1CCN(CCOC(=O)Cc2c(C)n(C(=O)c3ccc(Cl)cc3)c3ccc(OC)cc23)CC1)NC(=O)c1ccccc1 (centres undefined) [Proglumetacin],48.5%,–
> 45.8 µM,23.1 µM,CCC(=O)c1ccc2c(c1)N(CCCN(C)C)c1ccccc1S2 [Propionylpromazine hydrochloride],60.1%,–
> 45.8 µM,16.4 µM,CCCOC(C(=O)OC1CCN(C)CC1)(c1ccccc1)c1ccccc1 [Propiverine hydrochloride],45%,–
20.6 µM,23.1 µM,C#C[C@]1(O)CC[C@H]2[C@@H]3CCc4cc(OC5CCCC5)ccc4[C@H]3CC[C@@]21C [Quinestrol],56.3%,55%
18.3 µM,20.6 µM,O=C(c1ccc(OCCN2CCCCC2)cc1)c1c(-c2ccc(O)cc2)sc2cc(O)ccc12 [Raloxifene hydrochloride],88.8%,98.1%
20.6 µM,29.1 µM,COC(=O)[C@H]1[C@H]2C[C@@H]3c4[nH]c5cc(OC)ccc5c4CCN3C[C@H]2C[C@@H](OC(=O)/C=C/c2ccc(O)c(OC)c2)[C@@H]1OC [Rescimetol],106%,101%
> 45.8 µM,16.4 µM,COC(=O)[C@H]1[C@H]2C[C@@H]3c4[nH]c5cc(OC)ccc5c4CCN3C[C@H]2C[C@@H](OC(=O)c2cc(OC)c(OC)c(OC)c2)[C@@H]1OC [Reserpine],42.6%,–
1.16 µM,0.291 µM,C=CCNc1c(O)cc2c(O)c1C[C@@H](C)C[C@H](OC)[C@H](O)[C@@H](C)/C=C(\C)[C@H](OC(N)=O)[C@@H](OC)/C=C\C=C(/C)C(=O)N2 [Retaspimycin (Hydrochloride)],79.8%,80.4%
29.1 µM,18.3 µM,CCCC(=O)OC[C@@H](OC(=O)CCC)[C@@H](OC(=O)CCC)[C@H](Cn1c2nc(=O)[nH]c(=O)c-2nc2cc(C)c(C)cc21)OC(=O)CCC [Riboflavin tetrabutyrate],82.1%,64.5%
29.1 µM,29.1 µM,CO[C@H]1/C=C/O[C@@]2(C)Oc3c(C)c(O)c4c(O)c(c(/C=N/N5CCN(C)CC5)c(O)c4c3C2=O)NC(=O)/C(C)=C\C=C\[C@H](C)[C@H](O)[C@@H](C)[C@@H](O)[C@@H](C)[C@H](OC(C)=O)[C@@H]1C [Rifampicin],44.1%,44.2%
18.3 µM,29.1 µM,Cc1c(C(=O)NN2CCCCC2)nn(-c2ccc(Cl)cc2Cl)c1-c1ccc(Cl)cc1 [Rimonabant],87.3%,64.4%
> 45.8 µM,20.6 µM,CC(C)c1nc(CN(C)C(=O)N[C@H](C(=O)N[C@@H](Cc2ccccc2)C[C@H](O)[C@H](Cc2ccccc2)NC(=O)OCc2cncs2)C(C)C)cs1 [Ritonavir],57.4%,–
0.447 µM,0.0891 µM,CC[C@@]1(O)C(=O)OCc2c1cc1n(c2=O)Cc2cc3c([N+](=O)[O-])cccc3nc2-1 [Rubitecan],96.5%,81.2%
29.1 µM,29.1 µM,N#CC[C@H](C1CCCC1)n1cc(-c2ncnc3[nH]ccc23)cn1 [Ruxolitinib],88.8%,85.9%
29.1 µM,20.6 µM,CO[C@H]1C[C@H](O[C@@H]2/C(C)=C/C[C@@H]3C[C@@H](C[C@]4(CC[C@H](C)[C@@H](C5CCCCC5)O4)O3)OC(=O)[C@@H]3C=C(C)/C(=N/O)[C@H]4OC/C(=C\C=C\[C@@H]2C)[C@]43O)O[C@@H](C)[C@@H]1O [SELAMECTIN],109%,99.6%
2.83 µM,2.53 µM,C[n+]1cc2c3c(ccc2c2ccc4cc5c(cc4c21)OCO5)OCO3 [Sanguinarine],91.6%,98.2%
29.1 µM,20.6 µM,CC(C)(C)NC(=O)[C@@H]1C[C@@H]2CCCC[C@@H]2CN1C[C@@H](O)[C@H](Cc1ccccc1)NC(=O)[C@H](CC(N)=O)NC(=O)c1ccc2ccccc2n1 [Saquinavir],108%,84.1%
16.4 µM,23.1 µM,O=C1NCCN1CCN1CCC(c2cn(-c3ccc(F)cc3)c3ccc(Cl)cc23)CC1 [Sertindole],117%,105%
18.3 µM,18.3 µM,CN[C@H]1CC[C@@H](c2ccc(Cl)c(Cl)c2)c2ccccc21 [Sertraline hydrochloride],97.5%,95.4%
20.6 µM,29.1 µM,CO[C@H]1C[C@@H]2CC[C@@H](C)[C@@](O)(O2)C(=O)C(=O)N2CCCC[C@H]2C(=O)O[C@H]([C@H](C)C[C@@H]2CC[C@@H](O)[C@H](OC)C2)CC(=O)[C@H](C)/C=C(\C)[C@@H](O)[C@@H](OC)C(=O)[C@H](C)C[C@H](C)/C=C/C=C/C=C/1C [Sirolimus],88.6%,91.7%
29.1 µM,> 45.8 µM,CC(C)=CCOc1ccc(/C=C/C(=O)c2ccc(OCC=C(C)C)cc2OCC(=O)O)cc1 [Sofalcone],–,108%
10.3 µM,13 µM,Cc1c(C(=O)Nc2ccc(N3C[C@@H](C)O[C@@H](C)C3)nc2)cccc1-c1ccc(OC(F)(F)F)cc1 [Sonidegib],60.5%,42.7%
20.6 µM,23.1 µM,O=C1CSC2(CCN(CCCN3c4ccccc4Sc4ccc(Cl)cc43)CC2)N1 [Spiclomazine hydrochloride],82.5%,81.3%
16.4 µM,20.6 µM,CC(=O)S[C@@H]1CC2=CC(=O)CC[C@]2(C)[C@H]2CC[C@@]3(C)[C@@H](CC[C@@]34CCC(=O)O4)[C@H]12 [Spironolactone],73.6%,50.9%
> 45.8 µM,6.51 µM,OC[C@H]1O[C@H](O[C@]2(CCl)O[C@H](CCl)[C@@H](O)[C@@H]2O)[C@H](O)[C@@H](O)[C@H]1Cl [Sucralose],44.6%,–
18.3 µM,16.4 µM,CCN(CC)CCNC(=O)c1c(C)[nH]c(/C=C2\C(=O)Nc3ccc(F)cc32)c1C [Sunitinib malate],111%,108%
> 45.8 µM,25.9 µM,CCCCC1(COC(=O)CCC(=O)O)C(=O)N(c2ccccc2)N(c2ccccc2)C1=O [Suxibuzone],58.2%,–
29.1 µM,16.4 µM,CCOC(=O)Oc1c(OC)cc(C(=O)O[C@@H]2C[C@@H]3CN4CCc5c([nH]c6cc(OC)ccc56)[C@H]4C[C@@H]3[C@H](C(=O)OC)[C@H]2OC)cc1OC [Syrosingopine],101%,112%
25.9 µM,29.1 µM,CCO/N=C(\C(=O)N[C@@H]1C(=O)N2C(C(=O)[O-])=C(Sc3nc(-c4cc[n+](C)cc4)cs3)CS[C@H]12)c1nsc(NP(=O)(O)O)n1 [TAK-599],76.4%,57.6%
20.6 µM,20.6 µM,CN1CCN(CC/C=C2/c3ccccc3Sc3ccc(S(=O)(=O)N(C)C)cc32)CC1 [THIOTHIXENE],126%,112%
